From patent publication US8685953B2, “Linear and cyclic guanidine derivatives, method of preparation and uses thereof” (Universita Degli Studi Di Siena, priority 2008, dated 2014)
In brackets after ≈: the same amount, converted by molar mass.

Legend:
Assay in all cases: MIC determination by AFST-EUCAST standard methodology
C. tropicalis 86E = assay type: cell-based; conditions: 24 h, visually and spectrophotometrically, read-out: Antifungal activity, expressed as MIC50
Experimental: (§1) Determination of MICs by AFST-EUCAST Standard Methodology
(§2) Assay medium. The assay medium was RPMI […] without NaHCO3 and with L-glutamine (Sigma Aldrich, Italy), buffered at pH 7.0 with 0.165 M morpholinepropanesulphonic acid (Sigma Aldrich, Italy) and supplemented with 2% (w/v) glucose. The medium, prepared as double-strength solution, was sterilized by filtration and diluted 1:2 (v/v) with the fungal inoculum prepared in sterile distilled water.
(§3) The yeast isolates were grown on Sabouraud dextrose agar (Oxoid, Madrid, Spain) for 48 h at 37° C. before testing. Suspensions were prepared by combining five distinct colonies of each culture of >1 mm diameter. A spectrophotometric procedure for inoculum preparation was used. The final inoculum suspension, prepared in sterile distilled water, contained between 0.5·10^5 and 2.5·10^5 cfu/mL.
(§4) Stock solutions of test compounds were prepared in 100% dimethyl sulfoxide. Stock solutions were prepared as 100× concentration relative to the highest concentration in the antifungal activity test, and frozen at −70° C. until used.
(§5) Sterile plastic micro titration plates containing flat-bottomed wells were used. The plates contained serial dilution of the antifungal agents with a volume of assay medium of 100 μL/well. Two drug-free medium wells were used as sterility and growth controls. The trays were inoculated with 100 μL/well of the final inoculum, with the exception of sterility control wells. The range of concentrations tested for each drug was 1.25-80 μM. The microtitration plates were incubated at 37° C. for 24 h. The minimal inhibitory concentrations (MICs) were determined at 24 h both visually and spectrophotometrically.
(§6) By visual endpoint determination, MICs were determined according to a S-1-R scale, with S (susceptible) indicating an optical clear culture, I (intermediate susceptibility) indicating a slightly hazy culture, and R (resistant) indicating no reduction in turbidity. The MIC50 was defined as the lowest concentration of a drug which correspond to a S culture.
(§7) Microtitration plates were stirred using a microtitration plate shaker before reading to ensure uniform turbidity. MICs were obtained by measuring the absorbance at 450 nm with a microtitration plate reader. The value of the blank was subtracted from reading of the rest of the wells. Two endpoints were defined for each antifungal agent tested, with MIC80 indicating the lowest drug concentration resulting in a reduction of growth of 80% or more (determined spectrophotometrically) compared with the growth of the control, and MIC50 indicating the lowest drug concentration resulting in a reduction in growth of 50% (determined spectrophotometrically) compared with the growth of the control. The MIC50 was also defined as the spectrophotometric endpoint.

C. krusei ATCC 14243 = assay type: cell-based; conditions: 24 h, visually and spectrophotometrically, read-out: Antifungal activity, expressed as MIC50
Experimental: as §1, §2, §3, §4, §5, §6, §7

C. krusei 193T = assay type: cell-based; conditions: 24 h, visually and spectrophotometrically, read-out: Antifungal activity, expressed as MIC50
Experimental: as §1, §2, §3, §4, §5, §6, §7

C. parapsilosis 81E = assay type: cell-based; conditions: 24 h, visually and spectrophotometrically, read-out: Antifungal activity, expressed as MIC50
Experimental: as §1, §2, §3, §4, §5, §6, §7

C. glabrata 70E = assay type: cell-based; conditions: C. glabrata 70E; 24 h, visually and spectrophotometrically; read-out: Antifungal activity, expressed as MIC50
Experimental: as §1, §2, §3, §4, §5, §6, §7

[1] = tested on: C. parapsilosis ATCC 34136; assay type: cell-based; conditions: 24 h, visually and spectrophotometrically, read-out: Antifungal activity, expressed as MIC50
Experimental: as §1, §2, §3, §4, §5, §6, §7

C. parapsilosis 64E = assay type: cell-based; conditions: 24 h, visually and spectrophotometrically, read-out: Antifungal activity, expressed as MIC50
Experimental: as §1, §2, §3, §4, §5, §6, §7

C. albicans 4T = assay type: cell-based, Candida albicans; conditions: 24 h, visually and spectrophotometrically, read-out: Antifungal activity, expressed as MIC50
Experimental: as §1, §2, §3, §4, §5, §6, §7

C. albicans 15T = assay type: cell-based, Candida albicans; conditions: 24 h, visually and spectrophotometrically, read-out: Antifungal activity, expressed as MIC50
Experimental: as §1, §2, §3, §4, §5, §6, §7

C. albicans 53T = assay type: cell-based, Candida albicans; conditions: 24 h, visually and spectrophotometrically, read-out: Antifungal activity, expressed as MIC50
Experimental: as §1, §2, §3, §4, §5, §6, §7

C. albicans ATCC 60193 = assay type: cell-based, Candida albicans; conditions: 24 h, visually and spectrophotometrically, read-out: Antifungal activity, expressed as MIC50
Experimental: as §1, §2, §3, §4, §5, §6, §7

| SMILES | MIC50 (C. tropicalis 86E) | MIC50 (C. krusei ATCC 14243) | MIC50 (C. krusei 193T) | MIC50 (C. parapsilosis 81E) | MIC50 (C. glabrata 70E) | MIC50 [1] | MIC50 (C. parapsilosis 64E) | MIC50 (C. albicans 4T) | MIC50 (C. albicans 15T) | MIC50 (C. albicans 53T) | MIC50 (C. albicans ATCC 60193) |
| --- | --- | --- | --- | --- | --- | --- | --- | --- | --- | --- | --- |
| N=C(N)NCCCCCCCCNCCCCCCCCNC(=N)NCC1CC1 [Compound 12c] | 5 µM (≈ 2.05 µg/mL) | 5 µM (≈ 2.05 µg/mL) | 10 µM (≈ 4.1 µg/mL) | 20 µM (≈ 8.19 µg/mL) | 20 µM (≈ 8.19 µg/mL) | 80 µM (≈ 32.8 µg/mL) | 5 µM (≈ 2.05 µg/mL) | 10 µM (≈ 4.1 µg/mL) | 20 µM (≈ 8.19 µg/mL) | 10 µM (≈ 4.1 µg/mL) | 20 µM (≈ 8.19 µg/mL) |
| CC(C)=CCNC(=N)NCCCCCCCCNCCCCCCCCNC(=N)N [Compound 12f] | 20 µM (≈ 8.47 µg/mL) | 40 µM (≈ 16.9 µg/mL) | 20 µM (≈ 8.47 µg/mL) | 40 µM (≈ 16.9 µg/mL) | 80 µM (≈ 33.9 µg/mL) | >80 µM | >80 µM | 80 µM (≈ 33.9 µg/mL) | 40 µM (≈ 16.9 µg/mL) | 80 µM (≈ 33.9 µg/mL) | 80 µM (≈ 33.9 µg/mL) |
| N=C(NCCCCCCCCN1CCCCCCCCNC(=N)NC1=O)NCc1ccccc1 [Compound 13a] | 2.5 µM (≈ 1.18 µg/mL) | 20 µM (≈ 9.43 µg/mL) | 10 µM (≈ 4.72 µg/mL) | 20 µM (≈ 9.43 µg/mL) | 40 µM (≈ 18.9 µg/mL) | 80 µM (≈ 37.7 µg/mL) | 20 µM (≈ 9.43 µg/mL) | 2.5 µM (≈ 1.18 µg/mL) | 5 µM (≈ 2.36 µg/mL) | 2.5 µM (≈ 1.18 µg/mL) | 2.5 µM (≈ 1.18 µg/mL) |
| C#CCNC(=N)NCCCCCCCCN1CCCCCCCCNC(=N)NC1=O [Compound 13b] | 5 µM (≈ 2.1 µg/mL) | 80 µM (≈ 33.6 µg/mL) | 40 µM (≈ 16.8 µg/mL) | 80 µM (≈ 33.6 µg/mL) | 80 µM (≈ 33.6 µg/mL) | 40 µM (≈ 16.8 µg/mL) | 40 µM (≈ 16.8 µg/mL) | 80 µM (≈ 33.6 µg/mL) | 2.5 µM (≈ 1.05 µg/mL) | 5 µM (≈ 2.1 µg/mL) | 2.5 µM (≈ 1.05 µg/mL) |
| CC=CCNC(=N)NCCCCCCCCN1CCCCCCCCNC(=N)NC1=O [Compound 13d] | 1.25 µM (≈ 0.545 µg/mL) | 5 µM (≈ 2.18 µg/mL) | 5 µM (≈ 2.18 µg/mL) | 5 µM (≈ 2.18 µg/mL) | 20 µM (≈ 8.71 µg/mL) | 5 µM (≈ 2.18 µg/mL) | 5 µM (≈ 2.18 µg/mL) | 1.25 µM (≈ 0.545 µg/mL) | 1.25 µM (≈ 0.545 µg/mL) | 2.5 µM (≈ 1.09 µg/mL) | 2.5 µM (≈ 1.09 µg/mL) |
| C=C(C)CNC(=N)NCCCCCCCCN1CCCCCCCCNC(=N)NC1=O [Compound 13e] | 40 µM (≈ 17.4 µg/mL) | 40 µM (≈ 17.4 µg/mL) | 80 µM (≈ 34.9 µg/mL) | >80 µM | 80 µM (≈ 34.9 µg/mL) | >80 µM | >80 µM | 40 µM (≈ 17.4 µg/mL) | 20 µM (≈ 8.71 µg/mL) | 40 µM (≈ 17.4 µg/mL) | 20 µM (≈ 8.71 µg/mL) |
